# pIC50: −log10 of the molar value.
# How the values were obtained:
# HepG2 = experiment: cells; conditions: Homo sapiens, HepG2, 48 h
# Description: Cytotoxicity against human HepG2 cells after 48 hrs by MTT assay
# MCF7 = experiment: cells; conditions: Homo sapiens, MCF7, 48 h
# Description: Cytotoxicity against human MCF7 cells after 48 hrs by MTT assay
# SGC-7901 = experiment: cells; conditions: Homo sapiens, SGC-7901, 48 h
# Description: Cytotoxicity against human SGC7901 cells after 48 hrs by MTT assay
# [1] = Inhibition of Escherichia coli thymidylate synthase by spectrophotometric analysis
# Bacillus subtilis = experiment: Antibacterial activity against Bacillus subtilis […] assessed as growth inhibition after 24 hrs by MTT assay; type: functional
# Staphylococcus aureus = experiment: Antibacterial activity against Staphylococcus aureus ATCC 530 assessed as growth inhibition after 24 hrs by MTT assay; type: functional; conditions: ATCC 530, 24 h
# Pseudomonas aeruginosa = experiment: Antibacterial activity against Pseudomonas aeruginosa ATCC 27853 assessed as growth inhibition after 24 hrs by MTT assay; type: functional; conditions: ATCC 27853, 24 h
# Escherichia coli = experiment: Antibacterial activity against Escherichia coli ATCC 25922 assessed as growth inhibition after 24 hrs by MTT assay; type: functional; conditions: ATCC 25922, 24 h
smiles,measurement,setting,value
Cc1ncc([N+](=O)[O-])n1CCSc1nnc(-c2cccs2)o1,pIC50,HepG2,4.69
same,pIC50,MCF7,4.59
same,pIC50,SGC-7901,4.51
Cc1ncc([N+](=O)[O-])n1CCSc1nnc(-c2ccc3ccccc3c2)o1,pIC50,HepG2,5.00
same,pIC50,MCF7,4.47
same,pIC50,SGC-7901,4.51
Cc1ncc([N+](=O)[O-])n1CCSc1nnc(-c2ccc3c(c2)OCCO3)o1,pIC50,HepG2,5.39
same,pIC50,MCF7,4.84
same,pIC50,SGC-7901,5.04
same,pIC50,[1],5.62
Cc1ncc([N+](=O)[O-])n1CCSc1nnc(-c2ccc(F)cc2)o1,pIC50,HepG2,6.22
same,pIC50,MCF7,5.09
same,pIC50,SGC-7901,5.28
same,pIC50,[1],5.41
Cc1ncc([N+](=O)[O-])n1CCSc1nnc(-c2ccccc2Cl)o1,pIC50,HepG2,4.81
same,pIC50,MCF7,4.65
same,pIC50,SGC-7901,4.49
Cc1ncc([N+](=O)[O-])n1CCSc1nnc(-c2ccc(Cl)cc2)o1,pIC50,HepG2,5.11
same,pIC50,MCF7,4.73
same,pIC50,SGC-7901,4.50
Cc1ncc([N+](=O)[O-])n1CCSc1nnc(-c2ccccc2O)o1,pIC50,HepG2,4.71
same,pIC50,MCF7,4.55
same,pIC50,SGC-7901,4.52
Cc1ncc([N+](=O)[O-])n1CCSc1nnc(-c2ccc(C(C)C)cc2)o1,pIC50,HepG2,5.37
same,pIC50,MCF7,4.68
same,pIC50,SGC-7901,4.86
same,pIC50,[1],< 5.00
Cc1ncc([N+](=O)[O-])n1CCSc1nnc(-c2ccc(C(C)(C)C)cc2)o1,pIC50,HepG2,5.40
same,pIC50,MCF7,4.66
same,pIC50,SGC-7901,4.51
same,pIC50,[1],< 5.00
Cc1ncc([N+](=O)[O-])n1CCSc1nnc(-c2ccc(N(C)C)cc2)o1,pIC50,HepG2,4.92
same,pIC50,MCF7,4.83
same,pIC50,SGC-7901,4.48
Cc1cccc(-c2nnc(SCCn3c([N+](=O)[O-])cnc3C)o2)c1O,pIC50,HepG2,5.06
same,pIC50,MCF7,4.70
same,pIC50,SGC-7901,4.44
Cc1ccc(-c2nnc(SCCn3c([N+](=O)[O-])cnc3C)o2)c(O)c1,pIC50,HepG2,4.78
same,pIC50,MCF7,4.63
same,pIC50,SGC-7901,4.44
COc1ccc(-c2nnc(SCCn3c([N+](=O)[O-])cnc3C)o2)c(O)c1,pIC50,HepG2,4.96
same,pIC50,MCF7,4.66
same,pIC50,SGC-7901,4.93
COc1cc(OC)cc(-c2nnc(SCCn3c([N+](=O)[O-])cnc3C)o2)c1,pIC50,HepG2,4.98
same,pIC50,MCF7,4.89
same,pIC50,SGC-7901,5.02
COc1cc(-c2nnc(SCCn3c([N+](=O)[O-])cnc3C)o2)cc(OC)c1OC,pIC50,HepG2,4.83
same,pIC50,MCF7,4.51
same,pIC50,SGC-7901,4.46
same,pIC50,[1],< 5.00
Cc1ncc([N+](=O)[O-])n1CCSc1nnc(-c2ccco2)o1,pIC50,HepG2,4.65
same,pIC50,MCF7,4.53
same,pIC50,SGC-7901,4.50
Cc1ncc([N+](=O)[O-])n1CCSc1nnc(-c2ccccn2)o1,pIC50,HepG2,4.69
same,pIC50,MCF7,4.41
same,pIC50,SGC-7901,4.52
Cc1ncc([N+](=O)[O-])n1CCSc1nnc(-c2cccnc2)o1,pIC50,HepG2,5.02
same,pIC50,MCF7,4.54
same,pIC50,SGC-7901,4.50
Cc1ncc([N+](=O)[O-])n1CCSc1nnc(-c2cnccc2N)o1,pIC50,HepG2,5.08
same,MIC,Bacillus subtilis,50 µg/mL
same,MIC,Staphylococcus aureus,25 µg/mL
same,MIC,Pseudomonas aeruginosa,12.5 µg/mL
same,pIC50,MCF7,4.53
same,MIC,Escherichia coli,12.5 µg/mL
same,pIC50,SGC-7901,4.46
same,pIC50,[1],5.74
Cc1ncc([N+](=O)[O-])n1CCSc1nnc(-c2ccc(N)nc2)o1,pIC50,HepG2,5.03
same,pIC50,MCF7,4.57
same,pIC50,SGC-7901,4.51
Cc1ncc([N+](=O)[O-])n1CCSc1nnc(-c2ccncc2)o1,pIC50,HepG2,4.83
same,pIC50,MCF7,4.90
same,pIC50,SGC-7901,4.80
Cc1ncc([N+](=O)[O-])n1CCSc1nnc(-c2ccnc(N)c2)o1,pIC50,HepG2,6.05
same,MIC,Bacillus subtilis,50 µg/mL
same,MIC,Staphylococcus aureus,25 µg/mL
same,MIC,Pseudomonas aeruginosa,6.25 µg/mL
same,pIC50,MCF7,4.70
same,MIC,Escherichia coli,3.13 µg/mL
same,pIC50,SGC-7901,4.52
same,pIC50,[1],5.90
Cc1ncc([N+](=O)[O-])n1CCSc1nnc(-c2ccnc(Cl)c2)o1,pIC50,HepG2,4.94
same,pIC50,MCF7,4.39
same,pIC50,SGC-7901,4.49
same,pIC50,[1],5.39
Cc1ncc([N+](=O)[O-])n1CCSc1nnc(-c2cccc3ccccc23)o1,pIC50,HepG2,4.97
same,pIC50,MCF7,4.52
same,pIC50,SGC-7901,5.06
Cc1ncc([N+](=O)[O-])n1CCSc1nnc(-c2ccccc2)o1,pIC50,HepG2,4.76
same,pIC50,MCF7,4.69
same,pIC50,SGC-7901,4.52
Cc1ccccc1-c1nnc(SCCn2c([N+](=O)[O-])cnc2C)o1,pIC50,HepG2,5.29
same,pIC50,MCF7,4.80
same,pIC50,SGC-7901,4.49
Cc1ccc(-c2nnc(SCCn3c([N+](=O)[O-])cnc3C)o2)cc1,pIC50,HepG2,5.66
same,pIC50,MCF7,4.81
same,pIC50,SGC-7901,4.90
same,pIC50,[1],< 5.00
COc1ccccc1-c1nnc(SCCn2c([N+](=O)[O-])cnc2C)o1,pIC50,HepG2,5.00
same,pIC50,MCF7,4.97
same,pIC50,SGC-7901,4.52
COc1ccc(-c2nnc(SCCn3c([N+](=O)[O-])cnc3C)o2)cc1,pIC50,HepG2,5.24
same,pIC50,MCF7,4.97
same,pIC50,SGC-7901,4.99
Cc1ncc([N+](=O)[O-])n1CCSc1nnc(-c2ccccc2N)o1,pIC50,HepG2,5.35
same,pIC50,MCF7,4.70
same,pIC50,SGC-7901,4.45
Cc1ncc([N+](=O)[O-])n1CCSc1nnc(-c2ccc(N)cc2)o1,pIC50,HepG2,5.17
same,pIC50,MCF7,4.70
same,pIC50,SGC-7901,4.50
CCOc1ccccc1-c1nnc(SCCn2c([N+](=O)[O-])cnc2C)o1,pIC50,HepG2,5.01
same,pIC50,MCF7,4.59
same,pIC50,SGC-7901,4.52
CCOc1ccc(-c2nnc(SCCn3c([N+](=O)[O-])cnc3C)o2)cc1,pIC50,HepG2,5.72
same,pIC50,MCF7,4.78
same,pIC50,SGC-7901,4.85
same,pIC50,[1],5.20
Cc1ncc([N+](=O)[O-])n1CCSc1nnc(-c2ccccc2[N+](=O)[O-])o1,pIC50,HepG2,6.15
same,MIC,Bacillus subtilis,3.13 µg/mL
same,MIC,Staphylococcus aureus,1.56 µg/mL
same,MIC,Pseudomonas aeruginosa,3.13 µg/mL
same,pIC50,MCF7,4.74
same,MIC,Escherichia coli,1.56 µg/mL
same,pIC50,SGC-7901,4.52
same,pIC50,[1],6.33
Cc1ncc([N+](=O)[O-])n1CCSc1nnc(-c2ccc([N+](=O)[O-])cc2)o1,pIC50,HepG2,5.39
same,pIC50,MCF7,4.90
same,pIC50,SGC-7901,4.91
Cc1ncc([N+](=O)[O-])n1CCSc1nnc(-c2ccccc2F)o1,pIC50,HepG2,5.43
same,pIC50,MCF7,4.69
same,pIC50,SGC-7901,4.47
O=c1[nH]cc(F)c(=O)[nH]1 [FLUOROURACIL],pIC50,HepG2,4.64
same,pIC50,MCF7,4.78
same,pIC50,SGC-7901,4.54
NC[C@H]1O[C@H](O[C@H]2[C@H](O)[C@@H](O[C@H]3O[C@H](CO)[C@@H](O)[C@H](N)[C@H]3O)[C@H](N)C[C@@H]2N)[C@H](O)[C@@H](O)[C@@H]1O [KANAMYCIN],MIC,Bacillus subtilis,1.56 µg/mL
same,MIC,Staphylococcus aureus,1.56 µg/mL
same,MIC,Pseudomonas aeruginosa,3.13 µg/mL
same,MIC,Escherichia coli,3.13 µg/mL
Nc1nc2[nH]cc(CCc3ccc(C(=O)N[C@@H](CCC(=O)O)C(=O)O)cc3)c2c(=O)[nH]1 [PEMETREXED],pIC50,[1],4.12
Cc1nc(=O)c2cc(CN(C)c3ccc(C(=O)N[C@@H](CCC(=O)O)C(=O)O)s3)ccc2[nH]1 [RALTITREXED],pIC50,HepG2,5.89
same,MIC,Bacillus subtilis,25 µg/mL
same,MIC,Staphylococcus aureus,50 µg/mL
same,MIC,Pseudomonas aeruginosa,50 µg/mL
same,pIC50,MCF7,4.90
same,MIC,Escherichia coli,25 µg/mL
same,pIC50,SGC-7901,5.06

# Reference: ChEMBL document CHEMBL2346585, “Novel 1,3,4-oxadiazole thioether derivatives targeting thymidylate synthase as dual anticancer/antimicrobial agents” (Bioorg Med Chem, 2013)
